Columns and labels:
D(1B) dopamine receptor = D(1B) dopamine receptor (Homo sapiens, UniProt P21918); assay: Binding affinity to human dopamine D5 receptor by radioligand binding assay
D(4) dopamine receptor = target: T1, D(4) dopamine receptor (Homo sapiens, UniProt P21917); assay: Binding affinity to human dopamine D4 receptor by radioligand binding assay
T1 sequence (P21917 whole entry): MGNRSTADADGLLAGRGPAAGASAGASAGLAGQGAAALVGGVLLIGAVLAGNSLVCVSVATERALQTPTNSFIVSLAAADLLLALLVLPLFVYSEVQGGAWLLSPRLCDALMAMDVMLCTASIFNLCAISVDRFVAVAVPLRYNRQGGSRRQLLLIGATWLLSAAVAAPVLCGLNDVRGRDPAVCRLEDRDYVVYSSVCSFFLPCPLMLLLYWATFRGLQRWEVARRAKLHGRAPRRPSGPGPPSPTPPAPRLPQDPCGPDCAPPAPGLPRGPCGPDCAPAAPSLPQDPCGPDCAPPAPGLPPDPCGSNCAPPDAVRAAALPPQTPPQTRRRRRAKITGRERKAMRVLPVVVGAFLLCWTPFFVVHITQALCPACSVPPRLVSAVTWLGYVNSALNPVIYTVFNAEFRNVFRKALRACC

D(3) dopamine receptor = D(3) dopamine receptor (Homo sapiens, UniProt P35462); assay: Binding affinity to human dopamine D3 receptor by radioligand binding assay
Chain of D(3) dopamine receptor (P35462 whole entry): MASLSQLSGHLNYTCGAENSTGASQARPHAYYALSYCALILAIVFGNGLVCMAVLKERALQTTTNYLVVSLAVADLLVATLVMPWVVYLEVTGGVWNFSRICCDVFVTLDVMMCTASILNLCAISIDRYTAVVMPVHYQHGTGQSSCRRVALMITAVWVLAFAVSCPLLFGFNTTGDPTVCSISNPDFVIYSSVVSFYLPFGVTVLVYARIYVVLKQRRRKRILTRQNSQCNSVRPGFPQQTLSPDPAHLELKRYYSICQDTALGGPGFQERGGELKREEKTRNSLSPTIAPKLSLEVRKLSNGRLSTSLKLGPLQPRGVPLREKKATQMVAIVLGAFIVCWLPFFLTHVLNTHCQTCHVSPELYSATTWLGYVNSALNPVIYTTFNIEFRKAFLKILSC

D(1A) dopamine receptor = D(1A) dopamine receptor (Homo sapiens, UniProt P21728); assay: Displacement of [3H]SCH23390 from human dopamine D1 receptor
Chain of D(1A) dopamine receptor (P21728 whole entry): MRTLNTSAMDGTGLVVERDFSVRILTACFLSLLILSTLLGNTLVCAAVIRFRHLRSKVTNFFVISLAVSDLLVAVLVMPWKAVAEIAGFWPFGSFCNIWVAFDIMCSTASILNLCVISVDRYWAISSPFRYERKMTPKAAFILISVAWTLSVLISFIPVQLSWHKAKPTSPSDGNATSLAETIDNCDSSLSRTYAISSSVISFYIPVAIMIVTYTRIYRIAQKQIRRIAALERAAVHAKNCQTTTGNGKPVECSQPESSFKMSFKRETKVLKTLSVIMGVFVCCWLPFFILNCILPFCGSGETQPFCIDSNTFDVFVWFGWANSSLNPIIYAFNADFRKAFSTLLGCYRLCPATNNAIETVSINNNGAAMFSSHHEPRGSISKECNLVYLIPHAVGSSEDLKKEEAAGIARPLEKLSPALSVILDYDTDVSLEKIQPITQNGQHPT

D(2) dopamine receptor = D(2) dopamine receptor (Homo sapiens, UniProt P14416); assay: Displacement of [3H]spiperone from human dopamine D2 receptor
Chain of D(2) dopamine receptor (P14416 whole entry): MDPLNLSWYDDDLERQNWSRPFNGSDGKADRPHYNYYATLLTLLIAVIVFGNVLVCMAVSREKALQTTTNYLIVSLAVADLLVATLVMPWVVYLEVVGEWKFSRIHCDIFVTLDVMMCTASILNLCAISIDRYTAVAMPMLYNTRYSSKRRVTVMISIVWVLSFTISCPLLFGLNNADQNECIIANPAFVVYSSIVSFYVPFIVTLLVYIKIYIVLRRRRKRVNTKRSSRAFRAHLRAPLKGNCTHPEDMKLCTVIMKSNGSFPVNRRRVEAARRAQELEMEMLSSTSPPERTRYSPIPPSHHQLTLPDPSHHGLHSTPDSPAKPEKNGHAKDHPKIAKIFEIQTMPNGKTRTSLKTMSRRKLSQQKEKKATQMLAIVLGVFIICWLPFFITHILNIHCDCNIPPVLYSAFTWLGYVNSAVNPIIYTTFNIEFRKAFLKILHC

Homo sapiens = species on record: Homo sapiens; assay: Selectivity ratio of Ki for human dopamine D2 receptor to Ki for human dopamine D4 receptor

Chain of D(1B) dopamine receptor (P21918 whole entry): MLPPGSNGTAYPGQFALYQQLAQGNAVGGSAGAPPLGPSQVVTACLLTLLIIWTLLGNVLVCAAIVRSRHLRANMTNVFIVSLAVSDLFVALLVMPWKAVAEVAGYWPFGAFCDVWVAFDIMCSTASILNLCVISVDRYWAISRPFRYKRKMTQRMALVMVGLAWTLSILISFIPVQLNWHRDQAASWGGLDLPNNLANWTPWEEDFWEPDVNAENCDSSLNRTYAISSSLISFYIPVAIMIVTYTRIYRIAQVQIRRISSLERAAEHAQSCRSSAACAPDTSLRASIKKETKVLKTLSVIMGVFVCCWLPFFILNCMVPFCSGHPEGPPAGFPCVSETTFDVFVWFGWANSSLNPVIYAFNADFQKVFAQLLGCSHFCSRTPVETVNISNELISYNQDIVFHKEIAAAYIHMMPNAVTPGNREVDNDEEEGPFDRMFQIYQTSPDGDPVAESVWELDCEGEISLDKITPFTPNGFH

| Compound | Ki (D(1B) dopamine receptor) [nM] | Ki (D(4) dopamine receptor) [nM] | Ki (D(3) dopamine receptor) [nM] | Ki (D(1A) dopamine receptor) [nM] | Ki (D(2) dopamine receptor) [nM] | Ratio Ki (Homo sapiens) |
| --- | --- | --- | --- | --- | --- | --- |
| Clc1cccc(N2CCN(Cc3csc4ccccc34)CC2)c1Cl | > 10000 | 22.5 | 52.5 | > 10000 | 383 |  |
| CCOc1ccccc1N1CCN(Cc2cccs2)CC1 | > 10000 | 3.9 | 112 | > 10000 | 162 | 14 |
| Clc1ccc(N2CCN(Cc3cc4ccccn4n3)CC2)cc1 |  | 3.1 | 5000 |  | 3200 |  |
| Clc1cccc(N2CCN(Cc3cccnc3)CC2)c1Cl | > 10000 | 4.4 | 41 | > 10000 | 327 |  |
| CCOc1ccccc1N1CCN(Cc2cccnc2)CC1 | > 10000 | 0.7 | 42 | > 10000 | 255 |  |
| Clc1cccc(N2CCN(Cc3c[nH]c4ccccc34)CC2)c1Cl | > 10000 | 6.2 | 123 | > 10000 |  |  |
| CCOc1ccccc1N1CCN(Cc2c[nH]c3ccccc23)CC1 | > 10000 | 0.03 | 103 | > 10000 | 473 |  |
| CCOc1ccccc1N1CCN(Cc2cccc3ccccc23)CC1 | > 10000 | 2 | 59 | > 10000 | 264 |  |
| Clc1cccc(N2CCN(Cc3cccc4ccccc34)CC2)c1Cl | > 10000 | 31 | 92 | > 10000 | 351 |  |
| CCOc1ccccc1N1CCN(Cc2csc3ccccc23)CC1 | > 10000 | 4.5 | 45.1 | > 10000 | 219 |  |

— ChEMBL document CHEMBL2417399, “Discovery of highly potent and selective D4 ligands by interactive SAR study” (Bioorg Med Chem Lett, 2013)
